Laboratory results published in patent US8853221B2, “Compounds of estrogen-related receptor modulators and the uses thereof” (Guangzhou Institute of Biomedicine & Health, Chinese …, priority 2008, dated 2014).

Key:
[1] = target: T1, GAL-hERRα (Homo sapiens, UniProt P11474); assay: GAL4-ERRα ligand binding domain luciferase reporter activation assay in 293 FT cells co-transfected with CMV-PGC-1α; format: cell-based; settings: in the presence of CMV-PGC-1α, approximately 24 hours, increasing concentrations (FIG. 1)
T1 construct: expressed in transfected cells; host or cells: 293 FT cells
T1 sequence (P11474 193-421 limits assumed): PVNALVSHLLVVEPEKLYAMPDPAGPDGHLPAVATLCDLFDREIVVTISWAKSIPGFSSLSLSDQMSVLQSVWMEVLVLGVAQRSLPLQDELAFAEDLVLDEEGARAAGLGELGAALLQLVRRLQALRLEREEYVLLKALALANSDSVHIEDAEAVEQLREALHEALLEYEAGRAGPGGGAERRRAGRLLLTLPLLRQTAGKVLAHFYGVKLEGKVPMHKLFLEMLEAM
From the text: To test the effect of the compounds on ERR and other nuclear hormone receptors, 293 FT cells were transiently transfected with expression vectors for the receptors along with appropriate reporter constructs according to methods known in the art. Suitable reporter gene constructs are well known to skilled workers in the fields of biochemistry and molecular biology. Other vectors known in the art can be used in the methods of the present invention. GAL4 fusions containing receptor ligand binding domain fragments were constructed by fusing human ERRα, human ERRβ and murine ERRγ ligand binding domain sequences to the C-terminal end of the yeast GAL4 DNA binding domain (amino acids 1-147 accession X85976) to form the expression vectors GAL-hERRα, GAL-L-hERRβ and Gal-mERRγ, respectively. pGAL is a control containing the yeast GAL4 DNA binding domain without receptor sequences. CMV-PGC-1α contains and expressed the PGC-1α coding sequences derived from PGC-1α (accession NM--008904). 293 FT cells for the activation assays were grown in Dulbecco's modified Eagle's medium supplemented with 10% resin charcoal-stripped fetal bovine serum at 37° C. in 5% CO2. One day prior to transfection, cells were plated to 50-80% confluence using phenol red free DMEM-FBS. The cells were transiently transfected by lipofection but other methods of transfection of DNA into cells can be utilized without deviating from the spirit of the invention. Luciferase reporter construct UASgx4-TK-Luc and cytomegalovirus-driven expression vector p-GAL, GAL-hERRα, GAL-L-hERRβ or Gal-mERRγ were added with CMV-PGC-1α. The cells were treated for approximately 24 hours with phenol red free DMEM-FBS containing 0.01% DMSO (control) or 0.01% DMSO with increasing concentrations of DK compounds. […] (FIG. 1).

[2] = tested on: PGC1α-promoter reporter gene driven by ERRα; assay: PGC1α-promoter luciferase reporter gene assay driven by ERRα in HeLa cells; format: cell-based, human; settings: 10 uM, approximately 24 hours (FIG. 2)
From the text: (§1) HeLa were transiently transfected with the pGL3-promoter (Promega) derivative pGL3-PGC1α-promoter or PDK4-Promega and expression vector for ERRα. The Renilla-Luciferase pRL-CMV Vector (Promega) was included as a control for transfection efficiency. The full length human ERRα was cloned into the expression vector pCMV. The pGL3-PGC1α-promoter or PDK4-promoter was generated by cloning an insert derived from a PCR reaction using human genomic DNA as template and primers based on the 2.6 kbp upstream sequence of the PGC1α transcriptional start site.
(§2) HeLa cells for the activation assays were grown in Dulbecco's modified Eagle's medium supplemented with 10% fetal bovine serum at 37° C. in 5% CO2. One day prior to transfection, cells were plated to 50-80% confluence using DMEM-FBS. The cells were transiently transfected by lipofection but other methods of transfection of DNA into cells can be utilized without deviating from the spirit of the invention. Luciferase reporter construct pGL3-PGC1α-promoter or PDK4-promoter and cytomegalovirus-driven expression vector pCMV or pCMV-hERRα were added. The cells were treated for approximately 24 hours with DMEM-FBS containing 0.01% DMSO (control) or 0.01% DMSO with 10 uM DK45 compound.

[3] = tested on: high-fat-diet mice; assay: Serum free fatty acid, cholesterol and triglyceride levels in high-fat-diet mice; format: in vivo, C57BL/J6 mice; settings: 5 mg/kg/day
Protocol: (§3) Seven weeks old male C57BL/J6 mice were either fed chow diet or a high-fat-diet with 60% calories from lard for 10 weeks. Compounds were administered to animals by gavage for two weeks at different doses. Four groups of animals (n=5) were administered with either vehicle, 5 mg/kg/day rosiglitazone, or 5 mg/kg/day DK45. Animals were fasted for 5 h, and then orally fed glucose. Blood samples were withdrawn at time 0, 15, 30, 60 and 120 min. Blood glucose level was measured by monitor (Accu-chek Advantage, Roche). The changes in blood glucose level were plotted against time and the areas under the curve were calculated for the different groups.
Moreover, DK45 at 5 mg/kg/day reduced serum free fatty acid (FIG. 7), cholesterol (FIG. 8), and triglyceride levels (FIG. 9) of non-fasting treatments.

[4] = tested on: high-fat-diet mice; assay: Blood insulin level in high-fat-diet mice; format: in vivo, C57BL/J6 mice; settings: 5 mg/kg/day by gavage, non-fasting (FIG. 6)
Protocol: as §3
(§4) The blood insulin levels of fasting and non-fasting treatments also indicate that DK45 at 5 mg/kg/day reduced the blood insulin levels of non-fasting treatments (FIG. 6).

[5] = tested on: PDK4-promoter reporter gene driven by ERRα; assay: PDK4-promoter luciferase reporter gene assay driven by ERRα in HeLa cells; format: cell-based, human; settings: 10 uM, approximately 24 hours (FIG. 2)
From the text: as §1, §2

[6] = tested on: high-fat-diet mice; assay: Insulin resistance (insulin tolerance) test in high-fat-diet mice; format: in vivo, C57BL/J6 mice; settings: 5 mg/kg/day by gavage, fasted 5 h, insulin 0.75 IU/kg (FIG. 5)
Protocol: as §3
In addition, insullin resistance test was administered. Animals were fasted for 5 h, and then injected insulin (0.75 IU/kg). Blood samples were withdrawn at time 0, 15, 30, 60 and 120 min. Blood glucose level was measured by monitor (Accu-chek Advantage, Roche). The changes in blood glucose level were plotted against time and the areas under the curve were calculated for the different groups.
as §4

[7] = tested on: high-fat-diet mice; assay: Oral glucose tolerance test in high-fat-diet mice; format: in vivo, C57BL/J6 mice; settings: 5 mg/kg/day by gavage for two weeks, fasted 5 h (FIG. 3)
Protocol: as §3

[8] = tested on: high-fat-diet mice; assay: Non-fasting blood glucose level in high-fat-diet mice; format: in vivo, C57BL/J6 mice; settings: 5 mg/kg/day by gavage for two weeks, non-fasting (FIG. 4)

Row | SMILES | activity of GAL-hERRα on reporter construct UASgx4-TK-Luc [1] | PGC1α-promoter reporter gene driven by ERRα [2] | serum free fatty acid ([3]; non-fasting (FIG. 7)) | serum cholesterol ([3]; non-fasting (FIG. 8)) | serum triglyceride levels ([3]; non-fasting (FIG. 9)) | blood insulin levels of non-fasting treatments [4] | PDK4-promoter reporter gene driven by ERRα [5] | area under the curve of the insulin resistance test [6] | area under the curve of the oral glucose tolerance test [7] | blood glucose levels, non-fasting [8]
1 | COc1ccn2c(=O)cc(-c3ccccc3)nc2c1 [DK36, 8-methoxy-2-phenyl-4H-pyrido[1,2-a]pyrimidin-4-one] | dose-dependently enhances | – | – | – | – | – | – | – | – | –
2 | CC(C)Oc1ccn2c(=O)cc(-c3ccccc3)nc2c1 [DK41, 8-isopropoxy-2-phenyl-4H-pyrido[1,2-a]pyrimidin-4-one] | dose-dependently enhances | – | – | – | – | – | – | – | – | –
3 | CCc1ccn2c(=O)cc(-c3ccccc3)nc2c1 [DK45, 8-ethyl-2-phenyl-4H-pyrido[1,2-a]pyrimidin-4-one] | dose-dependently enhances | enhancement | reduced | reduced | reduced | reduced | enhancement | reduced | reduced | reduced
